# In ChEMBL document CHEMBL4665901, “Novel CDK2 Inhibitors for Treating Cancer” (ACS Med Chem Lett, 2020):
# Target: Cyclin-dependent kinase 2/cyclin E1 (Homo sapiens, UniProt P24941)
# Assay: Inhibition of recombinant full length wild-type CDK2/Cyclin E1 (unknown origin) expressed in baculovirus expression system assessed as […] using 5-FAM-QSPKKG-CONH2 peptide as substrate preincubated with enzyme for 15 mins followed by further incubation with ATP for 45 mins by fluorescence-based microfluidic mobility shift assay
row,Structure (SMILES),Ki [nM]
1,"COc1ccc(CC(=O)Nc2cc([C@H]3CC[C@@H](OC(=O)N4C[C@@H](C#N)[C@@H]4C)C3)[nH]n2)cn1 (single isomer, unassigned)",0.17
2,COc1ccc(CC(=O)Nc2cc([C@@H]3CC[C@H](OC(=O)N4CCC4(C)C)C3)[nH]n2)cn1,0.12
3,"CCC(CO)CNC(=O)O[C@@H]1CC[C@H](c2cc(NC(=O)Cc3ccc(OC)nc3)n[nH]2)C1 (single isomer, unassigned)",0.77
4,"Cc1ncc(CC(=O)Nc2cc([C@H]3CC[C@@H](OC(=O)N4C[C@@H](C#N)[C@@H]4C)C3)[nH]n2)s1 (single isomer, unassigned)",0.15
